# In patent publication US10858335B2 (Rigel Pharmaceuticals, Inc., priority 2014, dated 2020):
# Test system: GDF8 signaling (p-SMAD-3 (Ser423/425))
# Assay: AlphaScreen SureFire SMAD3 (p-Ser423/425) assay, GDF8-stimulated cells (GDF pSMAD)
# Type: cell-based
# Conditions: MPC11; GDF8-stimulated; p-SMAD3 AlphaScreen; read-out: GDF pSMAD (MPC11) (inhibition of GDF8 signaling)
row,Compound,IC50 [nM]
1,"Nc1ncnc2ccc(-c3cccnc3-c3cc(Cl)ccc3F)cc12 [compound 818, 6-(2-(5-Chloro-2-fluorophenyl)pyridin-3-yl)quinazolin-4-amine]",77.4
2,"Nc1ncnc2ccc(-c3cccnc3-c3cc(Cl)c(F)cc3F)cc12 [compound 819, 6-(2-(5-Chloro-2,4-difluorophenyl)pyridin-3-yl)quinazolin-4-amine]",119

# Same assay, conditions: Mus musculus, MPC-11, MPC11; GDF8-stimulated; p-SMAD3 AlphaScreen; read-out: GDF pSMAD (MPC11) (inhibition of GDF8 signaling)
row,Compound,IC50 [nM]
1,"Cn1cnc2ccc(-c3cccnc3-c3cc(Cl)c(F)cc3F)cc21 [compound 784, 6-(2-(5-Chloro-2,4-difluorophenyl)pyridin-3-yl)-1-methyl-1H-benzo[d]imidazole]",125
2,"Cn1cnc2ccc(-c3cccnc3-c3cc(Cl)ccc3F)cc21 [compound 785, 6-(2-(5-Chloro-2-fluorophenyl)pyridin-3-yl)-1-methyl-1H-benzo[d]imidazole]",110
3,"Cc1cc(-c2ncccc2-c2ccc3c(N)n[nH]c3c2)ccc1F [compound 786, 6-(2-(4-Fluoro-3-methylphenyl)pyridin-3-yl)-1H-indazol-3-amine]",340
4,"Cc1cc(-c2ncccc2-c2ccc3[nH]nc(N)c3c2)ccc1F [compound 788, 5-(2-(4-Fluoro-3-methylphenyl)pyridin-3-yl)-1H-indazol-3-amine]",4040
5,"Cc1cc(-c2ncccc2-c2ccc3ncc(C(=O)N[C@@H]4CN5CCC4CC5)n3c2)ccc1F [compound 790, (S)-6-(2-(4-Fluoro-3-methylphenyl)pyridin-3-yl)-N-(quinuclidin-3-yl)imidazo[1,2-a]pyridine-3-carboxamide]",4990
6,"Cc1cc(-c2ncccc2-c2ccc3ncc(C(=O)N[C@H]4CN5CCC4CC5)n3c2)ccc1F [compound 791, (R)-6-(2-(4-Fluoro-3-methylphenyl)pyridin-3-yl)-N-(quinuclidin-3-yl)imidazo[1,2-a]pyridine-3-carboxamide]",5370
7,"Cc1cc(-c2ncccc2-c2ccn3ncc(C(=O)N[C@@H]4CN5CCC4CC5)c3c2)ccc1F [compound 792, (S)-5-(2-(4-Fluoro-3-methylphenyl)pyridin-3-yl)-N-(quinuclidin-3-yl)pyrazolo[1,5-a]pyridine-3-carboxamide]",2430
8,"Cc1cc(-c2ncccc2-c2ccn3ncc(C(=O)N[C@H]4CN5CCC4CC5)c3c2)ccc1F [compound 793, (R)-5-(2-(4-Fluoro-3-methylphenyl)pyridin-3-yl)-N-(quinuclidin-3-yl)pyrazolo[1,5-a]pyridine-3-carboxamide]",2080
9,"Cc1cc(-c2ncccc2-c2ccc3c(N)noc3c2)ccc1F [compound 794, 6-(2-(4-Fluoro-3-methylphenyl)pyridin-3-yl)benzo[d]isoxazol-3-amine]",1800
10,"Cc1cc(-c2ncccc2-c2ccc3onc(N)c3c2)ccc1F [compound 795, 5-(2-(4-Fluoro-3-methylphenyl)pyridin-3-yl)benzo[d]isoxazol-3-amine]",8100
11,"Nc1noc2ccc(-c3cccnc3-c3ccc(F)c(Cl)c3)cc12 [compound 796, 5-(2-(3-Chloro-4-fluorophenyl)pyridin-3-yl)benzo[d]isoxazol-3-amine]",14000
12,"Nc1noc2cc(-c3cccnc3-c3ccc(F)c(Cl)c3)ccc12 [compound 797, 6-(2-(3-Chloro-4-fluorophenyl)pyridin-3-yl)benzo[d]isoxazol-3-amine]",3810
13,"Nc1noc2cc(-c3cccnc3-c3cccc(Cl)c3)ccc12 [compound 798, 6-(2-(3-Chlorophenyl)pyridin-3-yl)benzo[d]isoxazol-3-amine]",2620
14,"Nc1noc2ccc(-c3cccnc3-c3cccc(Cl)c3)cc12 [compound 799, 5-(2-(3-Chlorophenyl)pyridin-3-yl)benzo[d]isoxazol-3-amine]",14600
15,"Nc1n[nH]c2cc(-c3cccnc3-c3ccc(F)c(Cl)c3)ccc12 [compound 800, 6-(2-(3-Chloro-4-fluorophenyl)pyridin-3-yl)-1H-indazol-3-amine]",879
16,"Cc1cc(-c2ncccc2-c2ccc3ncc(C(=O)NCC45CCCN4CCC5)n3c2)ccc1F [compound 802, 6-(2-(4-Fluoro-3-methylphenyl)pyridin-3-yl)-N-((tetrahydro-1H-pyrrolizin-7a(5H)-yl)methyl)imidazo[1,2-a]pyridine-3-carboxamide]",5830
17,"Cc1cc(-c2ncccc2-c2ccc3ncc(C(=O)NCCC45CCCN4CCC5)n3c2)ccc1F [compound 803, 6-(2-(4-Fluoro-3-methylphenyl)pyridin-3-yl)-N-(2-(tetrahydro-1H-pyrrolizin-7a(5H)-yl)ethyl)imidazo[1,2-a]pyridine-3-carboxamide]",2260
18,"Cc1cc(-c2ncccc2-c2ccn3ncc(C(=O)NCC45CCCN4CCC5)c3c2)ccc1F [compound 804, 5-(2-(4-Fluoro-3-methylphenyl)pyridin-3-yl)-N-((tetrahydro-1H-pyrrolizin-7a(5H)-yl)methyl)pyrazolo[1,5-a]pyridine-3-carboxamide]",10100
19,"Cc1cc(-c2ncccc2-c2ccn3ncc(C(=O)NCCC45CCCN4CCC5)c3c2)ccc1F [compound 805, 5-(2-(4-Fluoro-3-methylphenyl)pyridin-3-yl)-N-(2-(tetrahydro-1H-pyrrolizin-7a(5H)-yl)ethyl)pyrazolo[1,5-a]pyridine-3-carboxamide]",953
20,"Cc1cc(-c2ncccc2-c2cn3ccnc3cc2C)ccc1F [compound 808, 6-(2-(4-Fluoro-3-methylphenyl)pyridin-3-yl)-7-methylimidazo[1,2-a]pyridine]",1540

row,Compound,IC50 [nM]
1,"Cc1cc(-c2ncccc2-c2ccc3ncnn3c2C)ccc1F [compound 809, 6-(2-(4-Fluoro-3-methylphenyl)pyridin-3-yl)-5-methyl-[1,2,4]triazolo[1,5-a]pyridine]",4000
2,"Cc1c(-c2cccnc2-c2ccc(F)c(Cl)c2)ccc2ncnn12 [compound 810, 6-(2-(3-Chloro-4-fluorophenyl)pyridin-3-yl)-5-methyl-[1,2,4]triazolo[1,5-a]pyridine]",5780
3,"Cc1c(-c2cccnc2-c2cccc(Cl)c2)ccc2ncnn12 [compound 811, 6-(2-(3-Chlorophenyl)pyridin-3-yl)-5-methyl-[1,2,4]triazolo[1,5-a]pyridine]",2920
4,"Cc1c(-c2cccnc2-c2cc(Cl)ccc2F)ccc2ncnn12 [compound 812, 6-(2-(5-Chloro-2-fluorophenyl)pyridin-3-yl)-5-methyl-[1,2,4]triazolo[1,5-a]pyridine]",2140
5,"Cc1c(-c2cccnc2-c2cc(Cl)c(F)cc2F)ccc2ncnn12 [compound 813, 6-(2-(5-Chloro-2,4-difluorophenyl)pyridin-3-yl)-5-methyl-[1,2,4]triazolo[1,5-a]pyridine]",2430
6,"CC(=O)NCCNC(=O)c1cnc2ccc(-c3cccnc3-c3ccc(F)c(C)c3)cn12 [compound 815, N-(2-Acetamidoethyl)-6-(2-(4-fluoro-3-methylphenyl)pyridin-3-yl)imidazo[1,2-a]pyridine-3-carboxamide]",941
7,"CC(=O)NCCCNC(=O)c1cnc2ccc(-c3cccnc3-c3ccc(F)c(C)c3)cn12 [compound 816, N-(3-Acetamidopropyl)-6-(2-(4-fluoro-3-methylphenyl)pyridin-3-yl)imidazo[1,2-a]pyridine-3-carboxamide]",1610
8,"Cc1cc(-c2ncccc2-c2ccc3ncc(C(=O)NCCN4CCOC4=O)n3c2)ccc1F [compound 817, 6-(2-(4-Fluoro-3-methylphenyl)pyridin-3-yl)-N-(2-(2-oxooxazolidin-3-yl)ethyl)imidazo[1,2-a]pyridine-3-carboxamide]",584
9,"COc1ncnc2ccc(-c3cccnc3-c3cc(Cl)ccc3F)cc12 [compound 820, 6-(2-(5-Chloro-2-fluorophenyl)pyridin-3-yl)-4-methoxyquinazoline]",3060
10,"COc1ncnc2ccc(-c3cccnc3-c3cc(Cl)c(F)cc3F)cc12 [compound 821, 6-(2-(5-Chloro-2,4-difluorophenyl)pyridin-3-yl)-4-methoxyquinazoline]",2160
11,"O=c1[nH]cnc2ccc(-c3cccnc3-c3cc(Cl)ccc3F)cc12 [compound 822, 6-(2-(5-Chloro-2-fluorophenyl)pyridin-3-yl)quinazolin-4(3H)-one]",127
12,"O=c1[nH]cnc2ccc(-c3cccnc3-c3cc(Cl)c(F)cc3F)cc12 [compound 823, 6-(2-(5-Chloro-2,4-difluorophenyl)pyridin-3-yl)quinazolin-4(3H)-one]",214
13,"Cc1cc(-c2ncccc2-c2ccc3nccc(N)c3c2)ccc1F [compound 836, 6-(2-(4-Fluoro-3-methylphenyl)pyridin-3-yl)quinolin-4-amine]",5940
14,"Nc1ccnc2ccc(-c3cccnc3-c3ccc(F)c(Cl)c3)cc12 [compound 837, 6-(2-(3-Chloro-4-fluorophenyl)pyridin-3-yl)quinolin-4-amine]",4860
15,"COc1ccnc2ccc(-c3cccnc3-c3cc(Cl)ccc3F)cc12 [compound 840, 6-(2-(5-Chloro-2-fluorophenyl)pyridin-3-yl)-4-methoxyquinoline]",8140
16,"COc1ccnc2ccc(-c3cccnc3-c3cccc(Cl)c3)cc12 [compound 841, 6-(2-(3-Chlorophenyl)pyridin-3-yl)-4-methoxyquinoline]",7640
17,"COc1ccnc2ccc(-c3cccnc3-c3cc(Cl)c(F)cc3F)cc12 [compound 842, 6-(2-(5-Chloro-2,4-difluorophenyl)pyridin-3-yl)-4-methoxyquinoline]",17400
18,"NC(=O)c1cnc2ccc(-c3cccnc3-c3ccc(F)c(Cl)c3)cn12 [compound 843, 6-(2-(3-Chloro-4-fluorophenyl)pyridin-3-yl)imidazo[1,2-a]pyridine-3-carboxamide]",21.3
19,"Fc1ccc(-c2ncccc2-c2ccc3ncc(-c4ncn[nH]4)n3c2)cc1Cl [compound 844, 6-(2-(3-Chloro-4-fluorophenyl)pyridin-3-yl)-3-(1H-1,2,4-triazol-5-yl)imidazo[1,2-a]pyridine]",32.4
20,"Fc1ccc(-c2ncccc2-c2ccc3ncc(-c4ncc[nH]4)n3c2)cc1Cl [compound 845, 6-(2-(3-Chloro-4-fluorophenyl)pyridin-3-yl)-3-(1H-imidazol-2-yl)imidazo[1,2-a]pyridine]",58.8
